# Legend:
# [1] = tested on: Lamb3-PTC-FF; assay: In-vivo dual luciferase reporter read-out in yeast cells, Lamb3-PTC-FF reporter; format: cell-based; settings: normalized to untreated control
# Excerpt: (§1) Luciferase read-out data are represented normalized to the individual luciferase reporter (Ren, Lamb3-FF, Lamb3-PTC-FF) read-outs in the untreated state set at 100% (normalizer); for renilla control—the untreated state—mean and standard deviation of quantifications from twelve biological replicates, each with six technical replicates (72 reads), are shown. For Lamb3-FF control—the untreated state—mean and standard deviation of quantifications from six biological replicates, each with six technical replicates (36 reads), are shown. For Lamb3-PTC control—the untreated state—mean and standard deviation of quantifications from two biological replicates, each with six technical replicates (12 reads), are shown. Quantification upon treatment with ART and ATZ, respectively, for both, Ren (216 reads) and Lamb3-FF (105 reads), is shown by combining read-out data obtained by treatment with 2, 4, and 10 μM ART and ATZ (treated), respectively, and is normalized to the respective untreated control (normalizer). For luciferase reporter read-outs of Lamb3-PTC-FF treated with 2 μM, 4 μM and 10 μM ART and 2, 4, and 10 nM ATZ, respectively, mean and standard deviation of quantification from two biological replicates for ART (12 reads) and three biological replicates for ATZ (18 reads), with six technical replicates each, are shown normalized to Lamb3-PTC-FF control.
# (§2) Luciferase read-out data are represented normalized to the individual luciferase reporter (Lamb3-FF, Lamb3-PTC-FF, FF, and FF-PTC) of a respective control in the untreated state set at 100% (normalizer). Twelve biological replicates (n=12) for all detections. Normalization for treatment is shown, additional controls were run, but are not shown. Dosages: ART 2 μM, ATZ 1.6 nM and erythromycin 4 μM, respectively. Combination treatment […] are 50 nM and 0.08 nM, respectively, i.e. 40-fold and 20-fold less than individually applied compounds.
# The inventors opted to first test small molecule action in the versatile yeast cell factory, employing the dual luciferase reporter system used in the original 2-SSRS (Bauer et al., 2013).
# [2] = tested on: Lamb3-FF; assay: In-vivo dual luciferase reporter read-out in yeast cells, Lamb3-FF reporter; format: cell-based; settings: for protein expression level of Lamb3-FF luciferase reporter upon small molecule treatment: combined read-outs of 2, 4 and 10 μM; for increase for Lamb3-FF protein expression: not significant
# Excerpt: as §1
# Obtaining evidence for drug directed manipulation of rpL35 to selectively increase full-length Lamb3-PTC expression has to be tested in functional assays. The inventors opted to first test small molecule action in the versatile yeast cell factory, employing the dual luciferase reporter system used in the original 2-SSRS (Bauer et al., 2013).
# [3] = tested on: renilla luciferase reporter; assay: In-vivo dual luciferase reporter read-out in yeast cells, renilla luciferase reporter; format: cell-based; settings: combined read-outs of 2, 4 and 10 μM
# Excerpt: as §1, with “control. […]” for “control.”
# [4] = biological target: T1, human rpL35 (Homo sapiens, UniProt P42766); settings: cited from earlier work
# [5] = biological target: T1, human rpL35; assay: NMR titration series (2D 1H,15N HSQC) of 15N rpL35-His6 with ligand; format: binding; design: MBP (N, cleaved yes); made in house; host or cells: E. coli BL21; settings: for number of amide signals with significant chemical shift perturbations: HSQC spectrum upon ligand addition; for binding to human rpL35 by NMR titration: changes in NMR spectra in presence of small molecule
# Procedure: NMR experiments were recorded at 25° C. (298K) on a 700 MHz Bruker Ascend spectrometer equipped with cryogenically cooled TCI probe. All spectra were processed using Topspin 3.5 and analyzed with CARA 1.8.4.2. (Keller R. Optimizing the Process of Nuclear Magnetic Resonance Spectrum Analysis and Computer Aided Resonance Assignment. ETH Zurich; 2004) and NMRFAM-Sparky (Lee W, Tonelli M, Markley J L. NMRFAM-SPARKY: enhanced software for biomolecular NMR spectroscopy. Bioinformatics. 2015 Apr. 15; 31(8):1325-7). Concentration of ^15N labeled rpL35-His6 ranged from 200 to 400 μM and the sample was measured in a salt tolerant susceptibility matched slot tube (Shigemi™) with total volume of 170 μl.
# NMR spectroscopy is able by comparative analysis of protein vs. protein+small molecule binder to asses binding sites of the small molecule on the protein. In this initial study the affinity of rpL35 towards artesunate and atazanavir was established by a simple titration series in which the inventors have been tracking perturbations to chemical shifts and peak heights in the 2D ^1H, ^15N HSQC spectrum. Aliquots of artesunate/atazanavir were added into the solution of ^15N rpL35 of which 2D 1H, ^15N HSQC spectrum was recorded immediately upon ligand addition. Perturbations of protein chemical shifts in ^15N HSQC spectrum are indicative of changes to the chemical environment of amide groups caused by binding of a ligand to the protein target.
# Following the artesunate-protein rpL35 complex titration, the inventors have recorded 3D spectra of the same sample using ^15N NOESY-HSQC, ^15N TOCSY-HSQC, HNHA pulse sequences. The inventors extracted chemical shifts of amide ^1H, ^15N, HA, HB from the above mentioned spectra, and compared measured values with the average chemical shifts of common amino acids in Biological Magnetic resonance Data Bank (BMRB; http://www.bmrb.wisc.edu). In the 3D ^1H, ^15N NOESY-HSQC the inventors focused also on the presence of water signal which can indicate if the amino group is solvent accessible. […] However, collection of the basic set of chemical shifts mentioned earlier allowed the inventors to estimate amino acid type since many of them have quite characteristic values (e. g. alanine, threonine, and glycine). 3D ^15N TOCSY-HSQC helped the inventors to differentiate between amino acid types which have similar NH chemical shifts, such as leucine, lysine, valine. […] Using this approach the inventors obtained a set of protein signals which changed their position in 2D ^1H^15N-HSQC spectrum upon interaction with the ligand (artesunate, atazanavir) and information on the most probable amino acid type. […]
# [6] = tested on: Lamb3PTC; assay: Hela in vitro translation assays; format: biochemical, human
# [7] = tested on: laminin 332; settings: primary keratinocytes from three GS-JEB patients; cited from earlier work
# [8] = tested on: Lamb3 protein with the R635XPTC mutation; settings: very high, therapeutically not applicable dose; cited from earlier work
# [9] = tested on: FF-PTC; assay: In-vivo dual luciferase reporter read-out in yeast cells, FF-PTC reporter; format: cell-based; settings: erythromycin 4 μM; indicator of lack of specific activity
# Procedure: as §2
Molecule,increase in full-length Lamb3-PTC-FF protein expression ([1]; treatment with 2 μM) [fold],protein expression level of Lamb3-FF luciferase reporter upon small molecule treatment [2],increase for Lamb3-FF protein expression ([2]; treatment with 4 μM),increase for Lamb3-FF protein expression ([2]; treatment with 10 μM) [fold],protein expression level of renilla luciferase reporter upon small molecule treatment [3],binding to human rpL35 in biotinylation assay [4],number of amide signals with significant chemical shift perturbations [5],binding to human rpL35 by NMR titration [5],Lamb3PTC expression [6],increase in full-length Lamb3-PTC-FF protein expression ([1]; treatment with 4 μM) [fold],increase in full-length Lamb3-PTC-FF protein expression ([1]; treatment with 10 μM) [fold],induction of functional laminin 332 [7],Lamb3 protein expression relative to normal level [8] [%],FF-PTC reporter read-out upon treatment [9]
C[C@H]1[C@H](OC(=O)CCC(=O)O)O[C@@H]2O[C@@]3(C)CC[C@H]4[C@H](C)CC[C@@H]1[C@@]24OO3 [artesunate],2.2,no significant increase,"1,1 fold",1.2,no significant increase,binder of human rpL35,10,bind human rpL35 protein at several possible binding pockets,increase,–,–,–,–,–
COC(=O)N[C@H](C(=O)N[C@@H](Cc1ccccc1)[C@@H](O)CN(Cc1ccc(-c2ccccn2)cc1)NC(=O)[C@@H](NC(=O)OC)C(C)(C)C)C(C)(C)C [atazanavir],1.8,no significant increase,–,–,no significant increase,–,5,bind human rpL35 protein at several possible binding pockets,increase,1.9,2.2,–,–,–
gentamicin,–,–,–,–,–,–,–,–,–,–,–,induced functional laminin 332,30,–
CC[C@H]1OC(=O)[C@H](C)[C@@H](O[C@H]2C[C@@](C)(OC)[C@@H](O)[C@H](C)O2)[C@H](C)[C@@H](O[C@@H]2O[C@H](C)C[C@H](N(C)C)[C@H]2O)[C@](C)(O)C[C@@H](C)C(=O)[C@H](C)[C@@H](O)[C@]1(C)O [erythromycin],–,–,–,–,–,–,–,–,–,–,–,–,–,increase
